Reference: patent publication US20260263550A1, “METHODS AND COMPOSITIONS FOR TREATING, PREVENTING, INHIBITING, AMELIORATING OR DELAYING THE ONSET OF OPHTHALMIC CONDITIONS” (Stealth BioTherapeutics Inc., priority 2021, published 2026)

Assay: in vivo
Conditions: cynomolgus monkey, sc; for concentration at 29 study day: Average Conc.
Experimental: Male and female cynomolgus monkeys were divided into four groups (Groups 1 to 4). Groups 1 and 4 consisted of five males and five females each and Groups 2 and 3 consisted of three males and three females each. Animals were dosed via SC injection once daily for 28 consecutive days. Group 1 animals received the control article, 0.9% sodium chloride injection, USP (saline). Group 2, 3, and 4 animals received the test article, compound of Formula IIa, at dose levels of 2, 5, and 15 mg/kg/day, respectively. Three males and three females from Groups 1 to 3, and three males and one female from Group 4 were necropsied on Day 29 (terminal necropsy). Two males and two females from Groups 1 and 4 were necropsied on Day 42 (recovery necropsy), after a 13-day treatment-free period. […] Safety endpoints included daily clinical and weekly detailed observations, food evaluation, dermal scoring of the injection site, body weight, ophthalmology, electrocardiography (ECG), hematology, coagulation, serum chemistry, and urinalysis. Blood was collected at multiple time points. At termination, gross observations and organ weights were recorded, and eye/optic nerve tissue samples were collected for microscopic evaluation and biodistribution assays.
Preparation of dose formulations. Dose formulation preparations were performed once weekly in a biosafety cabinet using clean techniques. The test article dosing formulations were prepared by diluting the 100 mg/mL (nominal concentration) compound of Formula IIa stock solution in the appropriate volume of 0.9% Sodium Chloride Injection, USP. All formulations (including Group 1, control) were filtered using a 0.22 μm polyethersulfone (PES) syringe filter. Osmolarity and pH were measured and recorded, then the dosing formulations were aliquoted into a sufficient number of sterile glass vials for daily use over one week. All aliquots were stored in a refrigerator set to maintain 4° C. and used within 7 days after preparation.
Test system. The test system was cynomolgus monkey, originating from Cambodia, supplied by Worldwide Primates. The animals were identified by unique skin tattoos. The body weight of the animals ranged from 1.6. to 2.4 kg at initiation of dosing and the ages ranged from 2.0 to 3.1 years at the initiation of dosing. For acclimation, there were 18 males and 18 females. For dosing, 16 males and 16 females were used.
Administration of dose formulations. The dose formulations were administered to appropriate animals by subcutaneous injection into the interscapular area once daily for 28 days using disposable syringe and needle. Four subcutaneous dose sites (upper left/right and lower left/right) were designated on the dorsal back using permanent marker or tattoo placed during acclimation avoiding the spine, with no edges overlapping and with a maximum practical distance between the dose sites. The designated dosing sites were shaved, and injection was rotated among them. If a designated site was not suitable for administration (e.g., due to wound, scab/crust, etc.), the next suitable site was used for dosing and appropriately documented.
Necropsy. Animals were fasted overnight prior to termination. Following blood collection on the day of necropsy, animals were sedated, weighed, and euthanized by an overdose of euthanasia solution, followed by whole body perfusion flush with phosphate buffered saline. Animals were subjected to a complete macroscopic examination and tissue collection. Bone marrow smears were prepared from the sternum at scheduled necropsy. Two females were necropsied early on Days 25 and 27. Blood samples (hematology, coagulation, and serum chemistry) were collected prior to euthanasia, after which a complete macroscopic examination was performed.
Tissue collection and preservation. Left eyes and optic nerves were fixed in a solution of 2.5% NBF and 3% Glutaraldehyde, and right eyes and optic nerves were frozen for biodistribution.
Biodistribution analysis—right eye and optic nerve. […]

[1] = male, 15 mg/kg/day, Average Concentration, Aqueous Humor
[2] = male, 15 mg/kg/day, Average Concentration, Choroid
[3] = male, 15 mg/kg/day, Average Concentration, Conjunctiva
[4] = male, 15 mg/kg/day, Average Concentration, Cornea
[5] = male, 15 mg/kg/day, Average Concentration, ICB (iris/ciliary body)
[6] = male, 15 mg/kg/day, Average Concentration, Optic Nerve
[7] = male, 15 mg/kg/day, Average Concentration, Retina
[8] = male, 15 mg/kg/day, Average Concentration, Sclera
[9] = male, 15 mg/kg/day, Average Concentration, Vitreous Humor

Cc1cc(O)cc(C)c1C[C@H](NC(=O)[C@H](N)CCCNC(=N)N)C(=O)N[C@@H](CCCCN)c1nc(Cc2ccccc2)no1.Cl.Cl.Cl [Formula IIa, (R)-2-amino-N—((S)-1-(((S)-5-amino-1-(3-benzyl-1,2,4-oxadiazol-5-yl)pentyl)amino)-3-(4-hydroxy-2,6-dimethylphenyl)-1-oxopropan-2-yl)-5-guanidinopentanamide]
Average Concentration (2 mg/kg): <LLOQ | Conc. (2 mg/kg): <LLOQ | Concentration (2 mg/kg): <LLOQ | Average Concentration (5 mg/kg): <LLOQ | Conc. (5 mg/kg): <LLOQ | Concentration (5 mg/kg): <LLOQ | Average Concentration (15 mg/kg): <LLOQ | Conc. (15 mg/kg): <LLOQ | Concentration (15 mg/kg): <LLOQ | concentration at 29 study day (female, 2 mg/kg): 17500 ng/g | concentration at 29 day (female, 2 mg/kg/day, Average Concentration, Aqueous Humor): 2.76 ng/mL | concentration at 29 day (female, 2 mg/kg/day, Average Concentration, Choroid): 2500 ng/g | concentration at 29 day (female, 2 mg/kg/day, Average Concentration, Conjunctiva): 835 ng/g | concentration at 29 day (female, 2 mg/kg/day, Average Concentration, Cornea): 27.2 ng/g | concentration at 29 day (female, 2 mg/kg/day, Average Concentration, ICB (iris/ciliary body)): 375 ng/g | concentration at 29 day (female, 2 mg/kg/day, Average Concentration, Optic Nerve): 17500 ng/g | concentration at 29 day (female, 2 mg/kg/day, Average Concentration, Retina): 7390 ng/g | concentration at 29 day (female, 2 mg/kg/day, Average Concentration, Sclera): 446 ng/g | concentration at 29 day (female, 2 mg/kg/day, Average Concentration, Vitreous Humor): 13.1 ng/mL | concentration at 29 day (female, 2 mg/kg/day, Concentration (ng/g), Cornea (individual animals)): 53.4 ng/g | concentration at 29 day (female, 2 mg/kg/day, Concentration (ng/mL), Cornea (individual animals)): 2.67 ng/mL | concentration at 29 study day (female, 5 mg/kg): 31800 ng/g | concentration at 29 day (female, 5 mg/kg/day, Average Concentration, Aqueous Humor): 25.9 ng/mL | concentration at 29 day (female, 5 mg/kg/day, Average Concentration, Choroid): 3210 ng/g | concentration at 29 day (female, 5 mg/kg/day, Average Concentration, Conjunctiva): 1770 ng/g | concentration at 29 day (female, 5 mg/kg/day, Average Concentration, Cornea): 56.1 ng/g | concentration at 29 day (female, 5 mg/kg/day, Average Concentration, ICB (iris/ciliary body)): 800 ng/g | concentration at 29 day (female, 5 mg/kg/day, Average Concentration, Optic Nerve): 31800 ng/g | concentration at 29 day (female, 5 mg/kg/day, Average Concentration, Retina): 20100 ng/g | concentration at 29 day (female, 5 mg/kg/day, Average Concentration, Sclera): 837 ng/g | concentration at 29 day (female, 5 mg/kg/day, Average Concentration, Vitreous Humor): 23.3 ng/mL | concentration at 42 day (female, 15 mg/kg/day, Average Concentration, Aqueous Humor): 9.83 ng/mL | concentration at 42 day (female, 15 mg/kg/day, Average Concentration, Choroid): 27600 ng/g | concentration at 42 day (female, 15 mg/kg/day, Average Concentration, Conjunctiva): 4540 ng/g | concentration at 42 day (female, 15 mg/kg/day, Average Concentration, Cornea): 149 ng/g | concentration at 42 day (female, 15 mg/kg/day, Average Concentration, ICB (iris/ciliary body)): 3160 ng/g | concentration at 42 day (female, 15 mg/kg/day, Average Concentration, Optic Nerve): 40800 ng/g | concentration at 42 day (female, 15 mg/kg/day, Average Concentration, Retina): 67000 ng/g | concentration at 42 day (female, 15 mg/kg/day, Average Concentration, Sclera): 4700 ng/g | concentration at 42 day (female, 15 mg/kg/day, Average Concentration, Vitreous Humor): 62.7 ng/mL | concentration at 42 day (female, 15 mg/kg/day, Concentration (ng/g), Sclera (individual animals)): 5140 ng/g | concentration at 29 study day (male, 2 mg/kg): 22000 ng/g | Concentration, Aqueous Humor (individual animals) (male, 2 mg/kg/day, 29 day): 2.94 ng/mL | concentration at 29 day (male, 2 mg/kg/day, Average Concentration, Aqueous Humor): 2.31 ng/mL | concentration at 29 day (male, 2 mg/kg/day, Average Concentration, Choroid): 1890 ng/g | concentration at 29 day (male, 2 mg/kg/day, Average Concentration, Conjunctiva): 603 ng/g | concentration at 29 day (male, 2 mg/kg/day, Average Concentration, Cornea): 39.3 ng/g | concentration at 29 day (male, 2 mg/kg/day, Average Concentration, ICB (iris/ciliary body)): 354 ng/g | concentration at 29 day (male, 2 mg/kg/day, Average Concentration, Optic Nerve): 22000 ng/g | concentration at 29 day (male, 2 mg/kg/day, Average Concentration, Retina): 2770 ng/g | concentration at 29 day (male, 2 mg/kg/day, Average Concentration, Sclera): 701 ng/g | concentration at 29 day (male, 2 mg/kg/day, Average Concentration, Vitreous Humor): 11.2 ng/mL | concentration at 29 day (male, 2 mg/kg/day, Concentration, Aqueous Humor (individual animals)): 4 ng/mL | concentration at 29 study day (male, 5 mg/kg): 26300 ng/g | concentration at 29 day (male, 5 mg/kg/day, Average Concentration, Aqueous Humor): 5.29 ng/mL | concentration at 29 day (male, 5 mg/kg/day, Average Concentration, Choroid): 4060 ng/g | concentration at 29 day (male, 5 mg/kg/day, Average Concentration, Conjunctiva): 3560 ng/g | concentration at 29 day (male, 5 mg/kg/day, Average Concentration, Cornea): 64 ng/g | concentration at 29 day (male, 5 mg/kg/day, Average Concentration, ICB (iris/ciliary body)): 1230 ng/g | concentration at 29 day (male, 5 mg/kg/day, Average Concentration, Optic Nerve): 26300 ng/g | concentration at 29 day (male, 5 mg/kg/day, Average Concentration, Retina): 5760 ng/g | concentration at 29 day (male, 5 mg/kg/day, Average Concentration, Sclera): 1820 ng/g | concentration at 29 day (male, 5 mg/kg/day, Average Concentration, Vitreous Humor): 13.3 ng/mL | concentration at 29 day [1]: 14.5 ng/mL | concentration at 42 day [1]: 3.82 ng/mL | concentration at 29 day [2]: 8790 ng/g | concentration at 42 day [2]: 7880 ng/g | concentration at 29 day [3]: 5430 ng/g | concentration at 42 day [3]: 4380 ng/g | concentration at 29 day [4]: 195 ng/g | concentration at 42 day [4]: 34.8 ng/g | concentration at 29 day [5]: 3910 ng/g | concentration at 42 day [5]: 1410 ng/g | concentration at 29 day [6]: 60000 ng/g | concentration at 42 day [6]: 91500 ng/g | concentration at 29 day [7]: 26100 ng/g | concentration at 42 day [7]: 30200 ng/g | concentration at 29 day [8]: 2260 ng/g | concentration at 42 day [8]: 3870 ng/g | concentration at 29 day [9]: 48.8 ng/mL | concentration at 42 day [9]: 45.3 ng/mL | concentration at 42 day (male, 15 mg/kg/day, Concentration (ng/g), Cornea (individual animals)): 34.6 ng/g | concentration at 42 day (male, 15 mg/kg/day, Concentration (ng/mL), Cornea (individual animals)): 1.73 ng/mL
